PubChem BioAssay AID278 (DTP/NCI, 2004)
Results filed as inconclusive are left out.

Test system: nude mice, A549 intrarenal xenograft, tumor weight change
Assay: NCI In Vivo Anticancer Drug Screen. Data for tumor model A549 Human Adenocarcinoma of Lung with characteristics of Type II Alveolar Epithelial cells (intrarenal inoculation) in NU/NU BALB/C (nude) mice
Conditions: endpoint: mean tumor weight change, schedule: Q04DX003 (ip), vehicle: saline + alcohol, higher = larger tumour
Outline: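 Mice bearing transplantable tumors were treated and survival or tumor size recorded. Values are given as treated-group measurement divided by vehicle-control measurement (T/C).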

C=C(CO)C(=O)OC1CC(=C)C2CC(O)C(=C)C2[C@H]2OC(=O)C(=C)C12 (stereo partly drawn)
T/C (dose: 2.36 mg/kg/injection): 64 % of control | T/C (dose: 4.72 mg/kg/injection): 99 % of control | T/C (dose: 8.75 mg/kg/injection): 86 % of control
